# Read-outs that look alike come from different tables or passages of the source.
# How the values were obtained:
# 229E Mpro = 229E Mpro (Human coronavirus 229E, UniProt P0C6X1); test: 229E Mpro enzymatic assay (standard methods, SARS-CoV2 Mpro assay given as exemplary); type: biochemical, human coronavirus (HCov) 229E
# In short: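 Run by standard methods, with the SARS-CoV-2 Mpro protocol given as the model: E. coli-expressed C-His6 protease at 25 nM and substrate at 25 μM (Km 13.5 μM). Buffer pH 7.3 with 5 mM TCEP and 0.1% BSA; % inhibition versus controls fitted to variable-slope log(inhibitor)-response for IC50.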
# HCov OC43 = test: HCoV OC43 cytopathic effect (CPE) assay, CellTiter Glo; type: cell-based, human coronavirus (HCov) OC43
# [1] = target: COVID-19 (nCoV-2019, SARS-CoV2) Mpro (Severe acute respiratory syndrome coronavirus 2, UniProt P0DTD1); test: COVID-19 (nCoV-2019, SARS-CoV2) Mpro enzymatic assay; type: biochemical; settings: 25 nM Mpro, 25 μM substrate; read-out: COVID-19 Mpro IC50
# [2] = read-out: OC43 IC50 (uM) MEDIAN, median
# [3] = Betacoronavirus 1, OC43, read-out: OC43 IC50 (uM) MEDIAN, median
# Chain of 229E Mpro (P0C6X1 2966-3267): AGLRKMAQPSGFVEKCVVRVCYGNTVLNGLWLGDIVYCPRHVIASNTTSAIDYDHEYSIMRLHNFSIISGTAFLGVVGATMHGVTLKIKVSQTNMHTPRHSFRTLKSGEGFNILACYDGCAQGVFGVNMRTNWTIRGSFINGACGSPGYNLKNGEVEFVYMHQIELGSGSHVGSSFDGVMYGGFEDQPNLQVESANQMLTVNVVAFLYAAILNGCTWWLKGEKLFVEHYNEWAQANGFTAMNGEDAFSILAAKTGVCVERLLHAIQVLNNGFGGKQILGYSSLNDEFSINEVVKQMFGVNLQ
SMILES,EC50 (229E Mpro; read-out: 229E Mpro EC50) [µM],IC50 (HCov OC43; [2]) [µM],IC50 [1] [µM],EC50 (229E Mpro; 229E Mpro EC50) [µM],IC50 (HCov OC43; [3]) [µM],"IC50 (HCov OC43; read-out: OC43 IC50 (uM) MEDIAN, median, listed as 262 Isomer 2) [µM]","IC50 (HCov OC43; read-out: OC43 IC50 (uM) MEDIAN, median, listed as 262 Isomer 1) [µM]"
"N#CN1CCOC[C@@H]1C(=O)N(c1ccc(C2CC2)cc1F)C(C(=O)NC1CCC(F)(F)CC1)c1cnccc1C(F)(F)F (single isomer, unassigned) [Compound 1313 Isomer 2]",< 2,2 to 10,2 to 10,,,,
"N#CC1(C(=O)N(c2ccc(S(F)(F)(F)(F)F)cc2)C(C(=O)NC2CCC(F)(F)CC2)c2cncc(F)c2)CC1 (single isomer, unassigned) [1289 Isomer 1, 1-cyano-N-[2-[(4,4-difluorocyclohexyl)amino]-1-(5-fluoro-3-pyridyl)-2-oxo-ethyl]-N-[4-(pentafluoro-λ^6-sulfanyl)phenyl]cyclopropanecarboxamide]",,,> 30,> 30,> 30,,
"O=C(NC1CCC(F)(F)CC1)C(c1cncc(F)c1)N(C(=O)C1CCC1(O)O)c1ccc(S(F)(F)(F)(F)F)cc1 (stereo not drawn) [Compound 1133a, N-[2-[(4,4-difluorocyclohexyl)amino]-1-(5-fluoro-3-pyridyl)-2-oxo-ethyl]-2,2-dihydroxy-N-[4-(pentafluoro-λ6-sulfanyl)phenyl]cyclobutanecarboxamide]",,,> 30,> 30,> 30,,
"CO[C@@H]1C[C@H](C(=O)N(c2ccc(S(F)(F)(F)(F)F)cc2)C(C(=O)N(CCO)C2CCC(F)(F)CC2)c2cccnc2)N(C(=O)OCc2ccccc2)C1 (stereo partly drawn) [Compound 1244, Benzyl (2R,4R)-2-[[2-[(4,4-difluorocyclohexyl)-(2-hydroxyethyl)amino]-2-oxo-1-(3-pyridyl)ethyl]-[4-(pentafluoro-λ^6-sulfanyl)phenyl]carbamoyl]-4-methoxy-pyrrolidine-1-carboxylate]",,,> 30,> 30,> 30,,
"C[C@H]1CN(C#N)[C@H]1C(=O)N(c1ccc(S(F)(F)(F)(F)F)cc1)C(C(=O)NC1CCC(F)(F)CC1)c1cncc(F)c1 (single isomer, unassigned) [1210 Isomer 1]",,10 to 30,10 to 30,< 2,,,
"CC(C)(C)c1ccc(N(C(=O)[C@H]2CCC(C)(C)N2C#N)C(C(=O)NC2CCCCC2)c2cccnc2)cc1 (single isomer, unassigned) [Compound 262 Isomer 2]",,,2 to 10,< 2,,10 to 30,
"CO[C@@H]1C[C@H](C(=O)N(c2ccc(S(F)(F)(F)(F)F)cc2)C(C(=O)NC(C)C2CCCCN2C(=O)OC(C)(C)C)c2cccnc2)N(C#N)C1 (single isomer, unassigned) [1303 Isomer 2]",,< 2,< 2,< 2,,,
"CC(C)(C)c1ccc(N(C(=O)[C@H]2CCC(C)(C)N2C#N)C(C(=O)NC2CCCCC2)c2cccnc2)cc1 (single isomer, unassigned) [Compound 262 Isomer 1]",,,> 30,> 30,,,> 30
"N#CN1C[C@H]2C[C@H]2[C@@H]1C(=O)N(c1ccc(S(F)(F)(F)(F)F)cc1)C(C(=O)NC1CCC(F)(F)CC1)c1cnccc1C(F)(F)F (single isomer, unassigned) [Compound 1318 Isomer 2]",< 2,< 2,< 2,,,,
CC(C)(C)OC(=O)NC1CCN(C(=O)C(c2cccnc2)N(C(=O)[C@H]2CCCN2C#N)c2ccc(C(C)(C)C)cc2)CC1 (stereo partly drawn) [Compound 966b],,,10 to 30,2 to 10,10 to 30,,
"CC1(O)CN(C(=O)C(c2cccnc2)N(C(=O)[C@H]2CCCN2C#N)c2ccc(C(C)(C)C)cc2)C1 (single isomer, unassigned) [955 Isomer 2]",2 to 10,10 to 30,10 to 30,,,,
"CC(C(=O)NC1CCC(F)(F)CC1)(c1cccnc1)N(C(=O)[C@H]1[C@@H]2C[C@@H]2CN1C#N)c1ccc(S(F)(F)(F)(F)F)cc1 (single isomer, unassigned) [Compound 1251 Isomer 1]",< 2,,2 to 10,,2 to 10,,
"N#CN1CC(F)(F)C[C@@H]1C(=O)N(c1ccc(S(F)(F)(F)(F)F)cc1)C(C(=O)NC1CCC(F)(F)CC1)c1cccnc1 (single isomer, unassigned) [1087 Isomer 2]",< 2,> 30,2 to 10,,,,
"CO[C@@H]1C[C@H](C(=O)N(c2ccc(S(F)(F)(F)(F)F)cc2)C(C(=O)NC2CCC(F)(F)CC2)c2cncc(F)c2)N(C#N)C1 (single isomer, unassigned) [1265 Isomer 1]",,,< 2,< 2,< 2,,
"CC(C)(C)c1ccc(N(C(=O)[C@H]2C[C@@](C)(O)CN2C#N)C(C(=O)NC2CCC(F)(F)CC2)c2cnccn2)cc1 (stereo partly drawn) [Compound 1326, (2R,4R)—N-(4-(tert-butyl)phenyl)-1-cyano-N-(2-((4,4-difluorocyclohexyl)amino)-2-oxo-1-(pyrazin-2-yl)ethyl)-4-hydroxy-4-methylpyrrolidine-2-carboxamide]",,,< 2,< 2,< 2,,
"CC(C)(C)c1ccc(N(C(=O)[C@H]2C[C@@H](O)CN2C#N)C(C(=O)NCc2cccnc2)c2cccnc2)cc1 (single isomer, unassigned) [643 Isomer 1]",,,< 2,< 2,< 2,,
"N#CN1C[C@H](O)C[C@@H]1C(=O)N(c1ccc(C2CC2)c(F)c1)C(C(=O)NC1CCCCC1)c1cccnc1 (single isomer, unassigned) [Compound 767 Isomer 2]",< 2,2 to 10,2 to 10,,,,
"CN(C(=O)C(c1cccnc1)N(C(=O)[C@H]1CCCN1C#N)c1ccc(C(C)(C)C)cc1)C1CCCCC1 (stereo partly drawn) [Compound 1228, (2R)—N-(4-(tert-butyl)phenyl)-1-cyano-N-(2-(cyclohexyl(methyl)amino)-2-oxo-1-(pyridin-3-yl)ethyl)pyrrolidine-2-carboxamide]",,,2 to 10,< 2,10 to 30,,
"CC(C)(C)c1ccc(N(C(=O)[C@H]2C[C@@H](O)CN2C#N)C(C(=O)NC2CCCCC2)c2cccnc2)c(Cl)c1 (stereo partly drawn) [Compound 775, (2R,4R)—N-(4-(tert-butyl)-2-chlorophenyl)-1-cyano-N-(2-(cyclohexylamino)-2-oxo-1-(pyridin-3-yl)ethyl)-4-hydroxypyrrolidine-2-carboxamide]",,,10 to 30,2 to 10,> 30,,
"O=C(NC1CCC(F)(F)CC1)C(c1cncc(F)c1)N(C(=O)c1cnc[nH]1)c1ccc(S(F)(F)(F)(F)F)cc1 (single isomer, unassigned) [1337 Isomer 1, N-[2-[(4,4-difluorocyclohexyl)amino]-1-(5-fluoro-3-pyridyl)-2-oxo-ethyl]-N-[4-(pentafluoro-λ6-sulfanyl)phenyl]-1H-imidazole-5-carboxamide]",,,10 to 30,2 to 10,> 30,,
"CO[C@@H]1C[C@H](C(=O)N(c2ccc(S(F)(F)(F)(F)F)cc2)C(C(=O)NC(C)C2CCCCN2)c2cccnc2)N(C#N)C1 (stereo partly drawn) [Compound 1123, (2R,4R)-1-cyano-4-methoxy-N-[2-oxo-2-[1-(2-piperidyl)ethylamino]-1-(3-pyridyl)ethyl]-N-[4-(pentafluoro-λ^6-sulfanyl)phenyl]pyrrolidine-2-carboxamide]",,,< 2,< 2,< 2,,
"C[C@@]1(O)C[C@H](C(=O)N(c2ccc(S(F)(F)(F)(F)F)cc2)C(C(=O)NC2CCC(F)(F)CC2)c2cccnc2F)N(C#N)C1 (stereo partly drawn) [Compound 1158, (2R,4R)-1-cyano-N-[2-[(4,4-difluorocyclohexyl)amino]-1-(2-fluoro-3-pyridyl)-2-oxo-ethyl]-4-hydroxy-4-methyl-N-[4-(pentafluoro-λ6-sulfanyl)phenyl]pyrrolidine-2-carboxamide]",,,< 2,< 2,< 2,,
"CC(C)(C)c1ccc(N(C(=O)[C@H]2CCCN2C#N)C(C(=O)NCc2ccncc2)c2cccnc2)cc1 (single isomer, unassigned) [Compound 439 Isomer 1]",,,2 to 10,< 2,10 to 30,,
"CO[C@@H]1C[C@H](C(=O)N(c2ccc(S(F)(F)(F)(F)F)cc2)C(C(=O)NC2CCC(F)(F)CC2)c2ccnnc2)N(C#N)C1 (stereo partly drawn) [Compound 1320, (2R,4R)-1-cyano-N-[2-[(4,4-difluorocyclohexyl)amino]-2-oxo-1-pyridazin-4-yl-ethyl]-4-methoxy-N-[4-(pentafluoro-λ6-sulfanyl)phenyl]pyrrolidine-2-carboxamide]",,,> 30,> 30,> 30,,
"Cc1nc[nH]c1C(C(=O)NC1CCC(F)(F)CC1)N(C(=O)[C@H]1C[C@@](C)(O)CN1C#N)c1ccc(S(F)(F)(F)(F)F)cc1 (single isomer, unassigned) [1324 Isomer 1]",,> 30,> 30,10 to 30,,,
"CO[C@@H]1C[C@H](C(=O)N(c2ccc(S(F)(F)(F)(F)F)cc2)C(C(=O)NC(C)C2CCCCN2C(=O)OC(C)(C)C)c2cccnc2)N(C#N)C1 (single isomer, unassigned) [1303 Isomer 2.1]",,10 to 30,2 to 10,2 to 10,,,
"CO[C@@H]1C[C@H](C(=O)N(c2ccc(S(F)(F)(F)(F)F)cc2)C(C(=O)NC(C)C2CCCCN2C(=O)OC(C)(C)C)c2cccnc2)N(C#N)C1 (single isomer, unassigned) [1303 Isomer 3]",,< 2,< 2,< 2,,,
